# Measurements: ChEMBL document CHEMBL1147389, “Two bioactive pterocarpans from Erythrina burana” (J Nat Prod, 1993)
# Columns and labels:
# Saccharomyces cerevisiae [1] = experiment: DNA damaging activity against RS322 YK rad52 DNA repair gene deficient Saccharomyces cerevisiae mutant assessed as drug level required to produce 12 mm zone of inhibition after 48 hrs; type: functional
# Saccharomyces cerevisiae [2] = experiment: DNA damaging activity against RS167 N rad6 DNA repair gene deficient Saccharomyces cerevisiae mutant assessed as drug level required to produce 12 mm zone of inhibition after 48 hrs; type: functional
# CHO [3] = experiment: Cytotoxicity against p-glycoprotein overexpressing CHO cells; type: cell-based; settings: Cricetulus griseus
# Saccharomyces cerevisiae [4] = experiment: DNA damaging activity against RS321 […] DNA repair gene deficient Saccharomyces cerevisiae mutant assessed as drug level required to produce 12 mm zone of inhibition after 48 hrs; type: functional
# P388 = experiment: Cytotoxicity against mouse P388 cells; type: functional, cell-based
# CHO [5] = experiment: Cytotoxicity against CHO cells; type: cell-based; settings: Cricetulus griseus
# Saccharomyces cerevisiae [6] = experiment: DNA damaging activity against RS188N rad DNA repair gene expressing Saccharomyces cerevisiae assessed as drug level required to produce 12 mm zone of inhibition after 48 hrs; type: functional
SMILES,IC12 (Saccharomyces cerevisiae [1]) [µg/mL],IC12 (Saccharomyces cerevisiae [2]) [µg/mL],IC50 (CHO [3]) [µM],IC12 (Saccharomyces cerevisiae [4]) [µg/mL],IC50 (P388) [µM],IC50 (CHO [5]) [µM],IC12 (Saccharomyces cerevisiae [6]) [µg/mL]
COc1ccc2c(c1CC=C(C)C)O[C@H]1c3ccc(O)cc3OC[C@@]21O [ERYTHRABYSSIN I],80,540,4,108,> 10,> 20,330
CC(C)=CCc1c(O)ccc2c1O[C@H]1c3ccc(O)cc3OC[C@@H]21 [PHASEOLLIDIN],500,> 1000,7.6,400,> 10,4,5500
